Measurements taken from US20170311606A1, “SYNERGISTIC BACILLUS THURINGIENSIS SUBSP. KURSTAKI AND FLUBENDIAMIDE MIXTURES FOR BEET ARMYWORM, SOYBEAN LOOPER, CORN EARWORM, AND CABBAGE LOOPER CONTROL” (priority 2016, published 2017).
Read-outs that look alike come from different tables or passages of the source.

Key:
soybean looper larvae = assay: Leaf dip bioassay, soybean looper larvae; format: in vivo, Chrysodeixis includens; details: foliar, Btk 0.54 ppm, flubendiamide 3.9 ppm, alone or mixed, read-out: % Efficacy
Protocol: (§1) The present invention is not limited to the products or formulation types used herein. In each example below, the studies were conducted as follows.
(§2) For these tests, standardized laboratory leaf dip methods were used to inoculate plant material with treatment(s). Dry, treated leaves were placed into Petri dishes (100×25 mm) containing filter paper wetted with 500 μl of distilled H2O (“dH2O”). Each dish was then infested with between 5 and 10 larvae, dependent on species. Efficacy ratings were taken at specified intervals. Synergy ratings were calculated for each test.
(§3) % Cexp=A+B−(AB/100), where % Cexp is the expected efficacy and “in which A and B are the control levels given by the single [insecticides]. […] Adopting a conservative approach, Applicant determined synergy to be present at ratios of >1.15.

diamondback moth larvae = assay: Leaf dip bioassay, diamondback moth larvae; format: in vivo; details: Plutella xylostella, foliar, Btk 0.54 ppm, flubendiamide 0.215 ppm, alone or mixed, read-out: % Efficacy
cabbage looper larvae = assay: Leaf dip bioassay, cabbage looper larvae; format: in vivo; details: Trichoplusia ni, foliar, Btk 0.54 ppm, flubendiamide 0.49 ppm, alone or mixed, read-out: % Efficacy
Protocol: as §1, §2, §3

sugarcane borer larvae = assay: Leaf dip bioassay, sugarcane borer larvae; format: in vivo; details: foliar, Btk 0.54 ppm, flubendiamide 2.15 ppm, alone or mixed, read-out: % Efficacy
Protocol: as §1, §2, §3

corn earworm larvae = assay: Leaf dip bioassay, corn earworm larvae; format: in vivo; details: Helicoverpa zea, foliar, Btk 0.54 ppm, flubendiamide 0.975 ppm, alone or mixed, read-out: % Efficacy
Protocol: as §1, §2, §3

[1] = tested on: southwestern corn borer larvae; assay: Leaf dip bioassay, southwestern corn borer larvae; format: in vivo; details: foliar, Btk 0.54 ppm, flubendiamide 0.215 ppm, alone or mixed, read-out: % Efficacy
Protocol: as §1, §2, §3

beet armyworm larvae = assay: Leaf dip bioassay, beet armyworm larvae; format: in vivo; details: Spodoptera exigua, foliar, alone or mixed, read-out: % Efficacy
Protocol: as §1, §2, §3

SMILES: Cc1cc(C(F)(C(F)(F)F)C(F)(F)F)ccc1NC(=O)c1cccc(I)c1C(=O)NC(C)(C)CS(C)(=O)=O [Flubendiamide, 3-iodo-N′-(2-mesyl-1,1-dimethylethyl)-N-{4-[1,2,2,2-tetrafluoro-1-(trifluoromethyl)ethyl]-o-tolyl}phthalamide]
- Emax at 3.9 ppm (soybean looper larvae; 24 h after treatment): 4%
- Emax at 3.9 ppm (soybean looper larvae; 48 h after treatment): 16%
- Emax at 0.215 ppm (diamondback moth larvae; 24 h after treatment): 7%
- Emax at 0.215 ppm (diamondback moth larvae; 48 h after treatment): 19%
- Emax at 0.49 ppm (cabbage looper larvae; 24 h after treatment): 7%
- Emax at 0.49 ppm (cabbage looper larvae; 48 h after treatment): 19%
- Emax at 2.15 ppm (sugarcane borer larvae; 24 h after treatment): 28%
- Emax at 2.15 ppm (sugarcane borer larvae; 48 h after treatment): 40%
- Emax at 0.975 ppm (corn earworm larvae; 24 h after treatment): 14%
- Emax at 0.975 ppm (corn earworm larvae; 48 h after treatment): 24%
- Emax at 0.215 ppm ([1]; 24 h after treatment): 40%
- Emax at 0.215 ppm ([1]; 48 h after treatment): 48%
- Emax at 0.49 ppm (beet armyworm larvae; 24 h after treatment): 6%
- Emax at 0.49 ppm (beet armyworm larvae; 48 h after treatment): 14%
